# Results from patent publication US20180221306A1, “PHARMACEUTICAL COMPOSITIONS OF 5-HYDROXY-2-METHYLNAPHTHALENE-1,4-DIONE” (PellFiCure Pharmaceuticals, Inc., priority 2016, published 2018).
# Marks after values point to notes of the source that are not given here.
# Experiment: Forced degradation: solution stability in aqueous media (HPLC)
compound,measurement,setting,value
"CC1=CC(=O)c2c(O)cccc2C1=O [Compound I, 5-hydroxy-2-methylnaphthalene-1,4-dione]","Solution Stability in Aqueous Media, Purity","pH 2, 50% DMSO, 40° C./75% RH, t = 1 week, precipitation observed",93.43^‡ % Area
same,"Solution Stability in Aqueous Media, Purity","pH 2, 50% DMSO, 40° C./75% RH, t = 2 week, precipitation observed",85.79^‡ % Area
same,"Solution Stability in Aqueous Media, Purity","pH 3, 50% DMSO, 25° C./60% RH, t = 0",98.85 % Area
same,"Solution Stability in Aqueous Media, Purity","pH 3, 50% DMSO, 25° C./60% RH, t = 1 week",97.09 % Area
same,"Solution Stability in Aqueous Media, Purity","pH 3, 50% DMSO, 25° C./60% RH, t = 2 week",95.26 % Area
same,"Solution Stability in Aqueous Media, Purity","pH 3, 50% DMSO, 40° C./75% RH, t = 1 week",88.81 % Area
same,"Solution Stability in Aqueous Media, Purity","pH 3, 50% DMSO, 40° C./75% RH, t = 2 week",72.78 % Area
same,"Solution Stability in Aqueous Media, Purity","pH 4, 50% DMSO, 25° C./60% RH, t = 0",98.73 % Area
same,"Solution Stability in Aqueous Media, Purity","pH 4, 50% DMSO, 25° C./60% RH, t = 1 week, precipitation observed",96.77^‡ % Area
same,"Solution Stability in Aqueous Media, Purity","pH 4, 50% DMSO, 25° C./60% RH, t = 2 week, precipitation observed",93.81^‡ % Area
same,"Solution Stability in Aqueous Media, Purity","pH 4, 50% DMSO, 40° C./75% RH, t = 1 week, precipitation observed",87.32^‡ % Area
same,"Solution Stability in Aqueous Media, Purity","pH 4, 50% DMSO, 40° C./75% RH, t = 2 week, precipitation observed",73.78^‡ % Area
same,"Solution Stability in Aqueous Media, Purity","pH 5, 50% DMSO, 25° C./60% RH, t = 0",98.46 % Area
same,"Solution Stability in Aqueous Media, Purity","pH 5, 50% DMSO, 25° C./60% RH, t = 1 week, precipitation observed",92.26^‡ % Area
same,"Solution Stability in Aqueous Media, Purity","pH 5, 50% DMSO, 25° C./60% RH, t = 2 week, precipitation observed",83.09^‡ % Area
same,"Solution Stability in Aqueous Media, Purity","pH 5, 50% DMSO, 40° C./75% RH, t = 1 week, precipitation observed",58.98^‡ % Area
same,"Solution Stability in Aqueous Media, Purity","pH 5, 50% DMSO, 40° C./75% RH, t = 2 week, precipitation observed",29.30^‡ % Area
same,"Solution Stability in Aqueous Media, Purity","pH 6, 50% DMSO, 25° C./60% RH, t = 0",97.78 % Area
same,"Solution Stability in Aqueous Media, Purity","pH 6, 50% DMSO, 25° C./60% RH, t = 1 week",69.37 % Area
same,"Solution Stability in Aqueous Media, Purity","pH 6, 50% DMSO, 25° C./60% RH, t = 2 week, precipitation observed",44.92^‡ % Area
same,"Solution Stability in Aqueous Media, Purity","pH 6, 50% DMSO, 40° C./75% RH, t = 1 week",<10 % Area
same,"Solution Stability in Aqueous Media, Purity","pH 6, 50% DMSO, 40° C./75% RH, t = 2 week, precipitation observed",<10^‡ % Area
same,"Solution Stability in Aqueous Media, Purity","pH 7, 50% DMSO, 25° C./60% RH, t = 0",91.09 % Area
same,"Solution Stability in Aqueous Media, Purity","pH 7, 50% DMSO, 25° C./60% RH, t = 1 week",<10 % Area
same,"Solution Stability in Aqueous Media, Purity","pH 7, 50% DMSO, 25° C./60% RH, t = 2 week, precipitation observed",<10^‡ % Area
same,"Solution Stability in Aqueous Media, Purity","pH 7, 50% DMSO, 40° C./75% RH, t = 1 week",<10 % Area
same,"Solution Stability in Aqueous Media, Purity","pH 7, 50% DMSO, 40° C./75% RH, t = 2 week, precipitation observed",<10^‡ % Area
same,"Solution Stability in Aqueous Media, Purity","pH 8, 50% DMSO, 25° C./60% RH, t = 0",81.64 % Area
same,"Solution Stability in Aqueous Media, Purity","pH 8, 50% DMSO, 25° C./60% RH, t = 1 week",<10 % Area
same,"Solution Stability in Aqueous Media, Purity","pH 8, 50% DMSO, 25° C./60% RH, t = 2 week, precipitation observed",<10^‡ % Area
same,"Solution Stability in Aqueous Media, Purity","pH 8, 50% DMSO, 40° C./75% RH, t = 1 week",<10 % Area
same,"Solution Stability in Aqueous Media, Purity","pH 8, 50% DMSO, 40° C./75% RH, t = 2 week, precipitation observed",<10^‡ % Area
same,"Solution Stability in Aqueous Media, Purity","pH 9, 50% DMSO, 25° C./60% RH, t = 0",89.84 % Area
same,"Solution Stability in Aqueous Media, Purity","pH 9, 50% DMSO, 25° C./60% RH, t = 1 week",30.06 % Area
same,"Solution Stability in Aqueous Media, Purity","pH 9, 50% DMSO, 25° C./60% RH, t = 2 week, precipitation observed",7.58^‡ % Area
same,"Solution Stability in Aqueous Media, Purity","pH 9, 50% DMSO, 40° C./75% RH, t = 1 week",<10 % Area
same,"Solution Stability in Aqueous Media, Purity","pH 9, 50% DMSO, 40° C./75% RH, t = 2 week, precipitation observed",<10^‡ % Area
same,"Solution Stability in Aqueous Media, Purity","pH 10, 50% DMSO, 25° C./60% RH, t = 0",88.46 % Area
same,"Solution Stability in Aqueous Media, Purity","pH 10, 50% DMSO, 25° C./60% RH, t = 1 week",37.43 % Area
same,"Solution Stability in Aqueous Media, Purity","pH 10, 50% DMSO, 25° C./60% RH, t = 2 week, precipitation observed",<10^‡ % Area
same,"Solution Stability in Aqueous Media, Purity","pH 10, 50% DMSO, 40° C./75% RH, t = 1 week, precipitation observed",<10^‡ % Area
same,"Solution Stability in Aqueous Media, Purity","pH 10, 50% DMSO, 40° C./75% RH, t = 2 week, precipitation observed",<10^‡ % Area
same,"Solution Stability in Aqueous Media, Purity","water, 25° C./60% RH, t = 0",96.33 % Area
same,"Solution Stability in Aqueous Media, Purity","water, 25° C./60% RH, t = 1 week, precipitation observed",66.97^‡ % Area
same,"Solution Stability in Aqueous Media, Purity","water, 25° C./60% RH, t = 2 week, precipitation observed",53.76^‡ % Area
same,"Solution Stability in Aqueous Media, Purity","water, 40° C./75% RH, t = 1 week, precipitation observed",45.09^‡ % Area
same,"Solution Stability in Aqueous Media, Purity","water, 40° C./75% RH, t = 2 week, precipitation observed",44.20^‡ % Area
